Data: BindingDB's records for doi:10.1021/jm000541z (Abbott Laboratories, 2001)

The compounds below were run against Alpha-1B adrenergic receptor (Mesocricetus auratus) (UniProt P18841) (assay: Binding affinity to hamster alpha-1B adrenergic receptor).
Alpha-1B adrenergic receptor (Mesocricetus auratus), sequence (P18841 whole entry, looked up): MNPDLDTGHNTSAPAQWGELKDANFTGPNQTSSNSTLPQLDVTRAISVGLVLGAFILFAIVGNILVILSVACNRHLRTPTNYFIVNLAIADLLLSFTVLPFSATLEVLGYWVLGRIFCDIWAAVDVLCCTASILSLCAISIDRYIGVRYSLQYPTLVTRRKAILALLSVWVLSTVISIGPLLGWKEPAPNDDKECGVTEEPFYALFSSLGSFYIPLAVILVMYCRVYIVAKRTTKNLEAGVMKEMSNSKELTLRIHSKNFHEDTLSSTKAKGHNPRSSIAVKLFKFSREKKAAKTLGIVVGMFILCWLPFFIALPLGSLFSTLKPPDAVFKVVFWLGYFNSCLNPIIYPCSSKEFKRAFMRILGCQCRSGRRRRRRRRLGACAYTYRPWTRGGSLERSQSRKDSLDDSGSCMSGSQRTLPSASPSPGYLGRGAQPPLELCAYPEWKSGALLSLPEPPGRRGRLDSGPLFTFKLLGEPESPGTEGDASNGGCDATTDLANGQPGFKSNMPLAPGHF

| Compound | Ki [nM] |
| --- | --- |
| COc1cc2c(cc1OC)C(=O)N(CCN1C[C@@H]3CCc4c(OC)cccc4[C@@H]3C1)CN2 [6,7-Dimethoxy-3-[2-(6-methoxy-1,3,3a,4,5,9b-hexahydro-benzo[e]isoindol-2-yl)-ethyl]-2,3-dihydro-1H-quinazolin-4-one] | 95.2 |
| COc1cc2c(cc1OC)NC(=O)N(CCN1C[C@@H]3CCc4c(OC)cccc4[C@@H]3C1)C2 [6,7-Dimethoxy-3-[2-(6-methoxy-1,3,3a,4,5,9b-hexahydro-benzo[e]isoindol-2-yl)-ethyl]-3,4-dihydro-1H-quinazolin-2-one] | 191 |
| COc1cc2ncn(CCN3C[C@@H]4CCc5c(OC)cccc5[C@@H]4C3)c(=O)c2cc1OC [6,7-Dimethoxy-3-[2-(6-methoxy-1,3,3a,4,5,9b-hexahydro-benzo[e]isoindol-2-yl)-ethyl]-3H-quinazolin-4-one] | 15.3 |
| COc1cc2[nH]c(=O)n(CCN3C[C@@H]4CCc5c(OC)cccc5[C@@H]4C3)c(=O)c2cc1Cl [6-Chloro-7-methoxy-3-[2-(6-methoxy-1,3,3a,4,5,9b-hexahydro-benzo[e]isoindol-2-yl)-ethyl]-1H-quinazoline-2,4-dione] | 9.27 |
| COc1ccc2[nH]c(=O)n(CCN3C[C@@H]4CCc5c(OC)cccc5[C@@H]4C3)c(=O)c2c1 [6-Methoxy-3-[2-(6-methoxy-1,3,3a,4,5,9b-hexahydro-benzo[e]isoindol-2-yl)-ethyl]-1H-quinazoline-2,4-dione] | 3.76 |
| COc1cc2[nH]c(=O)n(CCN3C[C@@H]4CCc5c(OC)cccc5[C@@H]4C3)c(=O)c2s1 [6-Methoxy-3-[2-(6-methoxy-1,3,3a,4,5,9b-hexahydro-benzo[e]isoindol-2-yl)-ethyl]-1H-thieno[3,2-d]pyrimidine-2,4-dione] | 0.74 |
| COc1cccc2c1CC[C@H]1CN(CCn3c(=O)[nH]c4c(C)c(OC)sc4c3=O)C[C@@H]21 [6-Methoxy-3-[2-(6-methoxy-1,3,3a,4,5,9b-hexahydro-benzo[e]isoindol-2-yl)-ethyl]-7-methyl-1H-thieno[3,2-d]pyrimidine-2,4-dione] | 7.14 |
| COc1cccc2c1CC[C@H]1CN(CCn3c(=O)[nH]c4cc(Cl)ccc4c3=O)C[C@@H]21 [7-Chloro-3-[2-(6-methoxy-1,3,3a,4,5,9b-hexahydro-benzo[e]isoindol-2-yl)-ethyl]-1H-quinazoline-2,4-dione] | 2.71 |
| COc1cccc2c1CC[C@H]1CN(CCn3c(=O)[nH]c4c(C(C)C)c(OC)sc4c3=O)C[C@@H]21 [7-Isopropyl-6-methoxy-3-[2-(6-methoxy-1,3,3a,4,5,9b-hexahydro-benzo[e]isoindol-2-yl)-ethyl]-1H-thieno[3,2-d]pyrimidine-2,4-dione] | 2.31 |
| COc1ccc2c(=O)n(CCN3C[C@@H]4CCc5c(OC)cccc5[C@@H]4C3)c(=O)[nH]c2c1 [7-Methoxy-3-[2-(6-methoxy-1,3,3a,4,5,9b-hexahydro-benzo[e]isoindol-2-yl)-ethyl]-1H-quinazoline-2,4-dione] | 0.66 |
| COc1cccc2c1CC[C@H]1CN(CCn3c(=O)[nH]c4c(OC)cccc4c3=O)C[C@@H]21 [8-Methoxy-3-[2-(6-methoxy-1,3,3a,4,5,9b-hexahydro-benzo[e]isoindol-2-yl)-ethyl]-1H-quinazoline-2,4-dione] | 2.27 |
| COc1cccc2c1CC[C@H]1CN(CCn3c(=O)[nH]c4cc(NC(C)=O)ccc4c3=O)C[C@@H]21 [N-{3-[2-(6-Methoxy-1,3,3a,4,5,9b-hexahydro-benzo[e]isoindol-2-yl)-ethyl]-2,4-dioxo-1,2,3,4-tetrahydro-quinazolin-7-yl}-acetamide] | 0.84 |
